Measured values taken from patent US8906848B2, “Aureobasidin derivatives and methods of synthesis” (priority 2011, dated 2014).
≈ marks a conversion by molar mass, not a printed value. Like-named read-outs stand apart in the source and are kept apart here.

Assays:
[1] = tested on: Rhizopus oryzae 0890 (ATCC11886); experiment: MIC, antifungal spectrum (Table 3); type: cell-based; conditions: Rhizopus arrhizus
Method: (§1) The activities of several exemplary compounds of the present invention were assayed according to the CLSI standard M38-A2 titled “Reference Method for Broth Dilution Antifungal Susceptibility Testing of Filamentous Fungi”. However, the RPMI-1640 broth is substituted for a YPD medium formulated according to the following steps: […]
(§2) 1. Dissolve 10 g of BactoYeast extract in 500 ml water
(§3) 2. Dissolve 20 g of BactoPeptone in the above solution
(§4) 3. Dissolve 20 g Dextrose in the above solution* *Ordinary table sugar (sucrose) substituted for dextrose routinely.
(§5) 4. q.s. to 1000 ml with water

[2] = tested on: Aspergillus flavus 4787 (ATCC204304); experiment: MIC, antifungal spectrum (Table 3); type: cell-based
Method: as §1, §2, §3, §4, §5

[3] = tested on: Candida albicans 2486 (ATCC204276); experiment: MIC, antifungal spectrum (Table 3); type: cell-based
Method: as §1, §2, §3, §4, §5

[4] = tested on: Candida tropicalis 636 (ATCC90874); experiment: MIC, antifungal spectrum (Table 3); type: cell-based
Method: as §1, §2, §3, §4, §5

[5] = tested on: Trychophyton rubrum 5279 (ATCC MYA-4438); experiment: MIC, antifungal spectrum (Table 3); type: cell-based; conditions: at 72 hrs, read-out: MIC
Method: as §1, §2, §3, §4, §5

[6] = tested on: Candida krusei 629 (ATCC14243); experiment: MIC, antifungal spectrum (Table 3); type: cell-based; conditions: Pichia kudriavzevii
Method: as §1, §2, §3, §4, §5

[7] = tested on: Trychophyton mentagrophytes 5278 (ATCC MYA-4439); experiment: MIC, antifungal spectrum (Table 3); type: cell-based; conditions: at 96 hrs, read-out: MIC
Method: as §1, §2, §3, §4, §5

[8] = tested on: Aspergillus candidus 450 (ATCC13686); experiment: MIC, antifungal spectrum (Table 3); type: cell-based
Method: as §1, §2, §3, §4, §5

[9] = tested on: Aspergillus fumigatus 5280 (ATCC MYA-3626); experiment: MIC, antifungal spectrum (Table 3); type: cell-based
Method: as §1, §2, §3, §4, §5

[10] = tested on: Candida parapsilosis 0630 (ATCC90018); experiment: MIC, antifungal spectrum (Table 3); type: cell-based; conditions: Lodderomyces parapsilosis
Method: as §1, §2, §3, §4, §5

[11] = tested on: Emericella nidulans 637 (ATCC96921); experiment: MIC, antifungal spectrum (Table 3); type: cell-based; conditions: Aspergillus nidulans
Method: as §1, §2, §3, §4, §5

[12] = tested on: Candida tropicalis 4783 (ATCC750); experiment: MIC, antifungal spectrum (Table 3); type: cell-based
Method: as §1, §2, §3, §4, §5

[13] = tested on: Aspergillus flavus 626 (ATCC64025); experiment: MIC, antifungal spectrum (Table 3); type: cell-based
Method: as §1, §2, §3, §4, §5

[14] = tested on: Aspergillus clavatus 638 (ATCC10058); experiment: MIC, antifungal spectrum (Table 3); type: cell-based
Method: as §1, §2, §3, §4, §5

[15] = tested on: Issatchenkia orientalis 2322 (ATCC6258); experiment: MIC, antifungal spectrum (Table 3); type: cell-based; conditions: Pichia kudriavzevii
Method: as §1, §2, §3, §4, §5

[16] = tested on: Trychophyton mentagrophytes 640 (ATCC 28185); experiment: MIC, antifungal spectrum (Table 3); type: cell-based
Method: as §1, §2, §3, §4, §5

[17] = tested on: Candida glabrata 635 (ATCC90030); experiment: MIC, antifungal spectrum (Table 3); type: cell-based; conditions: Nakaseomyces glabratus
Method: as §1, §2, §3, §4, §5

[18] = tested on: Fusarium oxysporum 0893 (ATCC48112); experiment: MIC, antifungal spectrum (Table 3); type: cell-based; conditions: at 96 hr, read-out: MIC
Method: as §1, §2, §3, §4, §5

[19] = tested on: Aspergillus ochraceus 625 (ATCC96919); experiment: MIC, antifungal spectrum (Table 3); type: cell-based
Method: as §1, §2, §3, §4, §5

[20] = tested on: Candida albicans 104 (ATCC90028); experiment: MIC, antifungal spectrum (Table 3); type: cell-based
Method: as §1, §2, §3, §4, §5

[21] = tested on: Sporothrix schenkii 892 (ATCC14284); experiment: MIC, antifungal spectrum (Table 3); type: cell-based; conditions: at 96 hrs, read-out: MIC
Method: as §1, §2, §3, §4, §5

[22] = tested on: Candida parapsilosis 2323 (ATCC22019); experiment: MIC, antifungal spectrum (Table 3); type: cell-based; conditions: Lodderomyces parapsilosis
Method: as §1, §2, §3, §4, §5

[23] = tested on: Candida albicans 2487 (ATCC MYA-2732); experiment: MIC, antifungal spectrum (Table 3); type: cell-based
Method: as §1, §2, §3, §4, §5

[24] = tested on: Candida albicans 633 (ATCC90029); experiment: MIC, antifungal spectrum (Table 3); type: cell-based
Method: as §1, §2, §3, §4, §5

[25] = tested on: Candida albicans 2000 (ATCC10231); experiment: MIC, antifungal spectrum (Table 3); type: cell-based
Method: as §1, §2, §3, §4, §5

[26] = tested on: Saccharomyces cerevisiae 0639 (ATCC7754); experiment: MIC, antifungal spectrum (Table 3); type: cell-based
Method: as §1, §2, §3, §4, §5

[27] = tested on: Candida lusitaniae 631 (ATCC66035); experiment: MIC, antifungal spectrum (Table 3); type: cell-based; conditions: Clavispora lusitaniae
Method: as §1, §2, §3, §4, §5

[28] = tested on: Candida albicans 4782 (ATCC24433); experiment: MIC, antifungal spectrum (Table 3); type: cell-based
Method: as §1, §2, §3, §4, §5

[29] = tested on: Aspergillus fumigatus 891 (ATCC204305); experiment: MIC, antifungal spectrum (Table 3); type: cell-based
Method: as §1, §2, §3, §4, §5

[30] = tested on: Candida guilliermondii 628 (ATCC34134); experiment: MIC, antifungal spectrum (Table 3); type: cell-based; conditions: Meyerozyma guilliermondii
Method: as §1, §2, §3, §4, §5

[31] = tested on: Aspergillus niger 624 (ATCC16888); experiment: MIC, antifungal spectrum (Table 3); type: cell-based
Method: as §1, §2, §3, §4, §5

[32] = tested on: Aspergillus flavus 122 (ATCC22546); experiment: MIC, antifungal spectrum (Table 3); type: cell-based
Method: as §1, §2, §3, §4, §5

[33] = tested on: Aspergillus fumigatus 5280 (ATCC MYA-3626); conditions: at 48 hrs; cited from earlier work
[34] = tested on: Candida parapsilosis 2323 (ATCC22019); conditions: cited from earlier work

C[C@@H]1[C@H](O)[C@@H](C)/C=C/C=C/C=C/C=C/C=C/C=C/C=C/[C@H](O[C@@H]2O[C@H](C)[C@@H](O)[C@H](N)[C@@H]2O)C[C@@H]2O[C@](O)(C[C@@H](O)C[C@@H](O)[C@H](O)CC[C@@H](O)C[C@@H](O)CC(=O)O[C@H]1C)C[C@H](O)[C@H]2C(=O)O [Amphotericin, Amphotericin B]
MIC ([1]; 48 hr reading): 0.03 µg/mL (≈ 0.0325 µM) | MIC ([1]; 72 hr reading): 0.03 µg/mL (≈ 0.0325 µM) | MIC ([2]; 48 hr reading): 0.25 µg/mL (≈ 0.271 µM) | MIC ([2]; 72 hr reading): 0.25 µg/mL (≈ 0.271 µM) | MIC ([3]; 48 hr reading): 0.06 µg/mL (≈ 0.0649 µM) | MIC ([3]; 72 hr reading): 0.06 µg/mL (≈ 0.0649 µM) | MIC ([4]; 48 hr reading): 0.06 µg/mL (≈ 0.0649 µM) | MIC ([4]; 72 hr reading): 0.125 µg/mL (≈ 0.135 µM) | MIC [5]: 0.03 µg/mL (≈ 0.0325 µM) | MIC ([6]; 48 hr reading): 0.125 µg/mL (≈ 0.135 µM) | MIC ([6]; 72 hr reading): 0.125 µg/mL (≈ 0.135 µM) | MIC [7]: 0.06 µg/mL (≈ 0.0649 µM) | MIC ([8]; 48 hr reading): 0.03 µg/mL (≈ 0.0325 µM) | MIC ([8]; 72 hr reading): 0.06 µg/mL (≈ 0.0649 µM) | MIC ([9]; 48 h, Aspergillus fumigatus 5280 (ATCC MYA-3626) no Tween, 48 hr reading): 1 µg/mL (≈ 1.08 µM) | MIC ([9]; 48 h, Aspergillus fumigatus 5280 (ATCC MYA-3626), 48 hr reading): 0.25 µg/mL (≈ 0.271 µM) | MIC ([9]; 72 h, Aspergillus fumigatus 5280 (ATCC MYA-3626) no Tween, 72 hr reading): 2 µg/mL (≈ 2.16 µM) | MIC ([9]; 72 h, Aspergillus fumigatus 5280 (ATCC MYA-3626), 72 hr reading): 0.5 µg/mL (≈ 0.541 µM) | MIC ([10]; 48 hr reading): 0.06 µg/mL (≈ 0.0649 µM) | MIC ([10]; 72 hr reading): 0.125 µg/mL (≈ 0.135 µM) | MIC ([11]; 48 hr reading): 1 µg/mL (≈ 1.08 µM) | MIC ([11]; 72 hr reading): 2 µg/mL (≈ 2.16 µM) | MIC ([12]; 48 hr reading): 0.06 µg/mL (≈ 0.0649 µM) | MIC ([12]; 72 hr reading): 0.125 µg/mL (≈ 0.135 µM) | MIC ([13]; 48 hr reading): 0.5 µg/mL (≈ 0.541 µM) | MIC ([13]; 72 hr reading): 0.5 µg/mL (≈ 0.541 µM) | MIC ([14]; 48 hr reading): ≤ 0.004 µg/mL | MIC ([14]; 72 hr reading): 0.015 µg/mL (≈ 0.0162 µM) | MIC ([15]; 48 hr reading): 0.125 µg/mL (≈ 0.135 µM) | MIC ([15]; 72 hr reading): 0.125 µg/mL (≈ 0.135 µM) | MIC ([16]; 48 hr reading): 0.06 µg/mL (≈ 0.0649 µM) | MIC ([16]; 72 hr reading): 0.25 µg/mL (≈ 0.271 µM) | MIC ([17]; 48 hr reading): 0.03 µg/mL (≈ 0.0325 µM) | MIC ([17]; 72 hr reading): 0.125 µg/mL (≈ 0.135 µM) | MIC [18]: 1 µg/mL (≈ 1.08 µM) | MIC ([19]; 48 hr reading): 0.25 µg/mL (≈ 0.271 µM) | MIC ([19]; 72 hr reading): 0.5 µg/mL (≈ 0.541 µM) | MIC ([20]; 48 hr reading): 0.3 µg/mL (≈ 0.325 µM) | MIC ([20]; 72 hr reading): 0.6 µg/mL (≈ 0.649 µM) | MIC [21]: 0.5 µg/mL (≈ 0.541 µM) | MIC ([22]; ATCC22019, 48 h, Candida parapsilosis 2323 (ATCC22019) no Tween, 48 hr reading): 0.25 µg/mL (≈ 0.271 µM) | MIC ([22]; ATCC22019, 48 h, Candida parapsilosis 2323 (ATCC22019), 48 hr reading): 0.125 µg/mL (≈ 0.135 µM) | MIC ([22]; ATCC22019, 72 h, Candida parapsilosis 2323 (ATCC22019) no Tween, 72 hr reading): 1 µg/mL (≈ 1.08 µM) | MIC ([22]; ATCC22019, 72 h, Candida parapsilosis 2323 (ATCC22019), 72 hr reading): 0.125 µg/mL (≈ 0.135 µM) | MIC ([23]; 48 hr reading): 0.06 µg/mL (≈ 0.0649 µM) | MIC ([23]; 72 hr reading): 0.06 µg/mL (≈ 0.0649 µM) | MIC ([24]; 48 hr reading): 0.3 µg/mL (≈ 0.325 µM) | MIC ([24]; 72 hr reading): 0.6 µg/mL (≈ 0.649 µM) | MIC ([25]; 48 hr reading): 0.3 µg/mL (≈ 0.325 µM) | MIC ([25]; 72 hr reading): 0.6 µg/mL (≈ 0.649 µM) | MIC ([26]; 48 hr reading): 0.06 µg/mL (≈ 0.0649 µM) | MIC ([26]; 72 hr reading): 0.06 µg/mL (≈ 0.0649 µM) | MIC ([27]; 48 hr reading): 0.015 µg/mL (≈ 0.0162 µM) | MIC ([27]; 72 hr reading): 0.03 µg/mL (≈ 0.0325 µM) | MIC ([28]; 48 hr reading): 0.3 µg/mL (≈ 0.325 µM) | MIC ([28]; 72 hr reading): 0.6 µg/mL (≈ 0.649 µM) | MIC ([29]; 48 hr reading): 0.25 µg/mL (≈ 0.271 µM) | MIC ([29]; 72 hr reading): 1 µg/mL (≈ 1.08 µM) | MIC ([30]; 48 hr reading): 0.008 µg/mL (≈ 0.00866 µM) | MIC ([30]; 72 hr reading): 0.015 µg/mL (≈ 0.0162 µM) | MIC ([31]; 48 hr reading): 0.03 µg/mL (≈ 0.0325 µM) | MIC ([31]; 72 hr reading): 0.125 µg/mL (≈ 0.135 µM) | MIC ([32]; 48 hr reading): 0.25 µg/mL (≈ 0.271 µM) | MIC ([32]; 72 hr reading): 0.25 µg/mL (≈ 0.271 µM) | Amphotericin B CLSI QC Range for A. Fumigatus ATCC MYA-3626 [33]: 0.5-4 at 48 hrs μg/ml | Amphotericin B CLSI QC Range for C. parapsilosis ([34]; 24 hrs): 0.25-2 (24 hrs) μg/ml | Amphotericin B CLSI QC Range for C. parapsilosis ([34]; 48 hrs): 0.5-4 (48 hrs) μg/ml
